# Tested on: mouse leukemia P388 cells
# Assay: Antitumor activity (increase in life-span) in mice transplanted with mouse leukemia P388 cells
# Type: in vivo
# Details: relative value of percent increase in life-span (ILS), dolastatin 10 ILS regarded as 1; P388 cells (10^6 per mouse) in abdominal cavity of CDF1 mice; drug intraperitoneally on first and fifth day; observed for 60 days
# Protocol: 0.1 ml (10^6 cells per mouse) each of mouse leukemia P388 cells was transplanted into the abdominal cavity of 7-weeks-old CDF1 mice. […] Then, the percent increase in life-span (ILS) was calculated from the results of observation according to the following equation. In the following equation, T designates the median number of days for which the mice of the drug-treated group survived, and C designates the median number of days for which the mice of the control group survived. [formula]
# The antitumor activity of each drug is expressed as a relative value based on the antitumor activity of dolastatin 10 for which ILS is regarded as 1.
substance,measurement,value
dolastatin 10,Antitumor activity,1
